Experiments:
[1] = molecular target: T1, Muscarinic acetylcholine receptor M4 (Homo sapiens, UniProt P08173); assay: Positive allosteric modulation of Gqi5-fused human M4 AChR assessed as increase in acetylcholine-induced calcium mobilization; type: functional
T1 sequence (P08173 whole entry): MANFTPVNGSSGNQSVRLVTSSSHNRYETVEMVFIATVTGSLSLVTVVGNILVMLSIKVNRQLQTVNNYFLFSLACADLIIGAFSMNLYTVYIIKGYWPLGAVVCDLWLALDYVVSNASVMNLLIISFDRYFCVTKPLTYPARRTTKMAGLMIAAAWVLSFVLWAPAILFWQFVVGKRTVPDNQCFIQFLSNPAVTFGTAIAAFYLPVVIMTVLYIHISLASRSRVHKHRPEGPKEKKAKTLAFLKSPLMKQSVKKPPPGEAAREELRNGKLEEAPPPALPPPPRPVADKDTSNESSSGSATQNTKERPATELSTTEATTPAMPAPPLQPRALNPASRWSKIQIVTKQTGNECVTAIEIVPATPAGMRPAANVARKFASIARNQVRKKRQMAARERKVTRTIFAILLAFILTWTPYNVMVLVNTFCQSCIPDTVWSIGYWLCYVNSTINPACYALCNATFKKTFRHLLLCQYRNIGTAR

[2] = Fraction unbound in rat plasma; type: ADME, cell-free
[3] = molecular target: T2, Muscarinic acetylcholine receptor M4 (Homo sapiens) (UniProt P08173); assay: Positive allosteric modulation of Gqi5-fused human M4 AChR assessed as increase in acetylcholine-induced calcium mobilization relative to acetylcholine alone; type: functional
T2 sequence (whole entry): T1 sequence (P08173 whole entry)

Cytochrome P450 = assay: Inhibition of CYP450 (unknown origin); type: ADME, protein assay; conditions: human
P-gp (ABCB1) = P-gp (ABCB1) (Homo sapiens, UniProt P08183); assay: Substrate activity at human P-gp assessed as efflux ratio; type: ADME; conditions: not told
P-gp (ABCB1), sequence (P08183 whole entry): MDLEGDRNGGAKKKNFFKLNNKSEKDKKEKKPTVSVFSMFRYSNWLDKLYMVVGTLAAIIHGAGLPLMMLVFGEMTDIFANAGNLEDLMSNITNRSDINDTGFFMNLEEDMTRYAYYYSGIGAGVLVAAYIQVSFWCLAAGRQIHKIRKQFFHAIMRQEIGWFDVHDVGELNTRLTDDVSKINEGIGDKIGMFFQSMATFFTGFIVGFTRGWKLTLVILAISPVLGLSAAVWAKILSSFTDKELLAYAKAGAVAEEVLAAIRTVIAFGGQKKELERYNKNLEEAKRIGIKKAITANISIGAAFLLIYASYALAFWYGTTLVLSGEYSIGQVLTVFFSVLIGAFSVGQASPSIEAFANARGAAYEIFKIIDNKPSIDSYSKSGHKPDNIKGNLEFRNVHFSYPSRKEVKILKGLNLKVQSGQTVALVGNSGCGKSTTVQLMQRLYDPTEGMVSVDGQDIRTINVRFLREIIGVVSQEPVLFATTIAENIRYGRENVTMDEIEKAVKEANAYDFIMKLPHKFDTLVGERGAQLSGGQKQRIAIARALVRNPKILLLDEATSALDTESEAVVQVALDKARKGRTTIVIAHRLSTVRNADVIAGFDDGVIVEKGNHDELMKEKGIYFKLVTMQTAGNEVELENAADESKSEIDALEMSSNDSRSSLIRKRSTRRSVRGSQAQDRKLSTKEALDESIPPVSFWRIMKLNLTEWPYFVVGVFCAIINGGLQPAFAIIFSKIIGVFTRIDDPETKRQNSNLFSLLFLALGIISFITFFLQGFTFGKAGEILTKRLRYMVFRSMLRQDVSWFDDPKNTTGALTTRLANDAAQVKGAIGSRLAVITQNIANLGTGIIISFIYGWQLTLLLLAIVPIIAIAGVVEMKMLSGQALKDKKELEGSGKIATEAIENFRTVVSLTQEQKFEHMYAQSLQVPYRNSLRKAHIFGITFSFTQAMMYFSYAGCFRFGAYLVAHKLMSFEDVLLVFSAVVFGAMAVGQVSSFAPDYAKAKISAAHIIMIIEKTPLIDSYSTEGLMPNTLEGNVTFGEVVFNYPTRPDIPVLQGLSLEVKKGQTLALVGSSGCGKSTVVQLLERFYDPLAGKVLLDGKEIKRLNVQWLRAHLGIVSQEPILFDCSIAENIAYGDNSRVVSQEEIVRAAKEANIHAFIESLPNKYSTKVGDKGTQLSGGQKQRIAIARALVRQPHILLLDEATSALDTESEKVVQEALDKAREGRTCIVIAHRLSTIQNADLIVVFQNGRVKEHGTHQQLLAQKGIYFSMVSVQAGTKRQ

[4] = Brain to plasma partition coefficient, Kp of the compound in rat; type: ADME, cell-free
Cytochrome P450 1A2 = molecular target: T3, Cytochrome P450 1A2 (Homo sapiens, UniProt P05177); assay: Inhibition of CYP1A2 (unknown origin); type: ADME
T3 sequence (P05177 whole entry): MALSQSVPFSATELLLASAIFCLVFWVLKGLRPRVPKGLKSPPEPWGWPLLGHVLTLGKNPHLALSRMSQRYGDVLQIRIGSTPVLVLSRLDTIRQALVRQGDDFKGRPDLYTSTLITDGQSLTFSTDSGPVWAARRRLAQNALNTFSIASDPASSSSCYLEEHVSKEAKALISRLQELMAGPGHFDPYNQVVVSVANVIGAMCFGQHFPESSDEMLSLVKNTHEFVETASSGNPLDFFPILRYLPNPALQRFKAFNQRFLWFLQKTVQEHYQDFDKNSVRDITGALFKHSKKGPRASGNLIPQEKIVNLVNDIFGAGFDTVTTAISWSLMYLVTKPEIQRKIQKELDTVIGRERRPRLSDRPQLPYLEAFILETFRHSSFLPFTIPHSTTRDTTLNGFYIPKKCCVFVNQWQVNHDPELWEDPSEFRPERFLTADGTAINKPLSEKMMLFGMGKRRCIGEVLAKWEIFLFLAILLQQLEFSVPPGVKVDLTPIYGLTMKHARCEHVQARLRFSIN

Cytochrome P450 2C9 = Cytochrome P450 2C9 (Homo sapiens, UniProt P11712); assay: Inhibition of CYP2C9 (unknown origin); type: ADME
Cytochrome P450 2C9, sequence (P11712 whole entry): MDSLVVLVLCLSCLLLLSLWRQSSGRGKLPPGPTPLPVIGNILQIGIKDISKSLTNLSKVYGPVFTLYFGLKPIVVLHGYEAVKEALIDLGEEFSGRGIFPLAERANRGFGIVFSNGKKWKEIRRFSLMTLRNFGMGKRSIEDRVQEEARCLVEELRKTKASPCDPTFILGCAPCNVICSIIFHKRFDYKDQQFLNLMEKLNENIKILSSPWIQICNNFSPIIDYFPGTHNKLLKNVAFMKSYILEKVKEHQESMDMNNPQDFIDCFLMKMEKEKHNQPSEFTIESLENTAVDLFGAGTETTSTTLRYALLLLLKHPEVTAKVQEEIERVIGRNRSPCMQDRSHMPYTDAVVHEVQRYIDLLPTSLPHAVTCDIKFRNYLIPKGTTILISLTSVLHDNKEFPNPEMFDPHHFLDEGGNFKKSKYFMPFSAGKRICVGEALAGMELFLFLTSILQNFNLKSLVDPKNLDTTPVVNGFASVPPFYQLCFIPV

SMILES | EC50 [1] [nM] | fraction unbound [2] | Emax [3] [%] | inhibition (INH) (Cytochrome P450) | other results
Cc1cc(C)c2c(C)c(C(=O)NCc3ccc(OC(F)(F)F)cc3)sc2n1 | > 10000 | < 0.005 | 29 | Active | –
COc1ccc(CNC(=O)c2cc3c(C)c(C)nnc3s2)cc1F | 1500 | < 0.005 | 66 | Active | –
Cc1cc(C)c2c(n1)sc1c(NCc3ccccc3)n[nH]c12 | 1000 | – | 66 | – | –
COc1ccc(CNC(=O)c2sc3nnc(C)c(C)c3c2C)cc1F | 2100 | < 0.005 | 56 | Active | –
Cc1cc(C)c2c(n1)sc1c(NCC3CCCC3)n[nH]c12 | 3800 | – | 65 | – | –
Cc1cc(C)c2c(n1)sc1c(NCc3ccco3)n[nH]c12 | 1200 | – | 76 | – | –
Cc1cc(C)c2c(C)c(C(=O)NCc3ccc4c(c3)OCCO4)sc2n1 | 2100 | < 0.005 | 56 | Active | –
Cc1nnc2sc3c(NCc4ccc(S(C)(=O)=O)c(F)c4)nn(C)c3c2c1C | 160 | – | 58 | – | Fu [2]: 0.05; efflux ratio (P-gp (ABCB1)): > 10; INH (Cytochrome P450): > 30 µM
COc1ccc(CNC(=O)c2sc3nnc(C)c(C)c3c2N)cc1F | – | – | 75 | – | –
COc1ccc(CNC(=O)c2sc3nc(C)cc(C)c3c2C)cc1 | 2700 | < 0.005 | 49 | Active | –
COc1ccc(CNc2nn(C)c3c2sc2nnc(C)c(C)c23)cc1 | 40 | – | 79 | – | Fu [2]: 0.02; Kp [4]: 0.25; INH (Cytochrome P450): > 30 µM
Cc1nnc2sc3c(NCC4CC4)nn(C)c3c2c1C | 620 | – | 84 | – | –
Cc1nc2sc3c(NCc4ccco4)nn(C)c3c2c(C)c1Cl | 120 | – | 59 | – | Fu [2]: < 0.001; IC50 (Cytochrome P450 1A2): < 100 nM; IC50 (Cytochrome P450 2C9): 1000 nM
Cc1cc(C)c2c(n1)sc1c(NCC3CC3)n[nH]c12 | 2000 | – | 67 | – | –
Cc1cc(C)c2c(C)c(C(=O)NCc3ccc4c(c3)CCO4)sc2n1 | 5900 | < 0.005 | 50 | Active | –
CCc1c(C(=O)NCc2ccc(OC)c(F)c2)sc2nnc(C)c(C)c12 | 2200 | < 0.005 | 73 | Active | –

SMILES | EC50 [1] [nM] | fraction unbound [2] | Emax [3] [%] | inhibition (INH) (Cytochrome P450) | other results
Cc1nnc2sc3c(NCc4ccc5c(c4)OCCO5)nn(C)c3c2c1C | 60 | – | 91 | – | –
COc1ccc(CNC(=O)c2sc3nnc(C)c(C)c3c2C2CC2)cc1F | 5600 | < 0.005 | 35 | Active | –
Cc1cc(C)c2c(C)c(C(=O)NCc3ccc(S(C)(=O)=O)cc3)sc2n1 | 6400 | < 0.005 | 58 | Active | –
CCc1c(C(=O)NCc2ccc(S(C)(=O)=O)cc2)sc2nc(C)cc(C)c12 | 2700 | < 0.005 | 57 | Active | –
COc1ccc(CNc2nn(C)c3c2sc2nc(C)c(Cl)c(C)c23)cc1 | > 10000 | – | 51 | – | –
Cc1nc2sc3c(NCC4CC4)nn(C)c3c2c(C)c1Cl | 230 | – | 67 | – | Fu [2]: < 0.001; IC50 (Cytochrome P450 1A2): < 100 nM; IC50 (Cytochrome P450 2C9): 1000 nM
Cc1cc(C)c2c(n1)sc1c(NCc3ccc(F)cc3)n[nH]c12 | 1100 | – | 62 | – | –
COc1ccc(CNc2n[nH]c3c2sc2nc(C)cc(C)c23)cc1 | 2200 | – | 67 | – | Fu [2]: < 0.002; INH (Cytochrome P450): < 5 µM
Cc1nnc2sc(C(=O)NC3COC3)c(C3CC3)c2c1C | > 10000 | < 0.005 | 38 | Active | –
Cc1nnc2sc3c(NCc4ccco4)nn(C)c3c2c1C | 690 | – | 91 | – | –
CSc1ccc(CNC(=O)c2sc3nc(C)cc(C)c3c2C)cc1 | 1500 | < 0.005 | 45 | Active | –
Cc1nc2sc3c(NCc4ccccc4)nn(C)c3c2c(C)c1Cl | > 10000 | – | 39 | – | –
Cc1nc2sc3c(NCc4ccc(F)cc4)nn(C)c3c2c(C)c1Cl | > 10000 | – | 56 | – | –
Cc1nnc2sc3c(NCC4CCCO4)nn(C)c3c2c1C (stereo unspecified) | 180 | – | 102 | – | –
COc1ccc(CNC(=O)c2cc3c(C)cc(C)nc3s2)cc1 | 5100 | < 0.005 | 53 | Active | –
